Legend:
Caco-2 cells [1] = assay type: cell-based; conditions: Caco-2, kifunensine-treated
Description: We examined whether supplementation of free monosacchaides derived from diet changes N-glycosylation outcomes on the intestinal cell-surface at concentrations relevant to physiological conditions. Changes in glycosylation were assessed by globally releasing glycans from membrane proteins extracted from fully differentiated (Caco-2) and partially differentiated (HT-29) intestinal epithelial cells and analyzing the mixture by porous graphitized carbon (PGC)-LC-MS. […] The glycan profile under normal growth conditions was used as a frame of reference with which to compare the glycome at varied environments.
Human colorectal adenocarcinoma Caco-2 cells derived from a person, were obtained from American Type Culture Collection (ATCC, VA) and grown in Eagle's Minimum Essential Medium (EMEM) supplemented with non-essential amino acids, 2 mM L-glutamine, 10% (v/v) fetal bovine serum (Life Technologies, NY), 1 mM sodium pyruvate, 1.5 g/L sodium bicarbonate, 100 U/mL penicillin, and 100 μg/mL streptomycin. Alternatively, Caco-2 cells were grown in Dulbecco's Modified Eagle's Medium (DMEM) supplemented with 10% (v/v) fetal bovine serum, 100 U/mL penicillin, and 100 μg/mL streptomycin. Human colorectal adenocarcinoma HT-29 cells, derived from a person, were obtained from ATCC and grown in McCoy's 5A medium supplemented with 10% (v/v) fetal bovine serum, 100 U/mL penicillin, and 100 μg/mL streptomycin. Cells were subcultured at 80% confluency and maintained at 37° C. in a humidified incubator with 5% CO=2. All treatments were added to the media after cell differentiation. Caco-2 cells were fully differentiated 14-days post-confluency. HT-29 cells were partially differentiated 4-days post-confluency. After 72 h, cells were collected in biological triplicates by scraping A fixed count of 2×10^6 viable cells was used for each experiment Passage number between experiments was controlled to no higher than P40 and a delta P of no more than 20. High passage cells were scraped after P80. Media was renewed three times a week unless specified. Monolayer integrity and quality of cell borders were evaluated under the microscope routinely during growth and before harvest.
In brief harvested cells were resuspended in homogenization buffer containing 0.25 M sucrose, 20 mM HEPES-KOH (pH 7.4), and 1:100 protease inhibitor (EMD Millipore, CA). Cell lysis was performed on ice using a probe sonicator (Qsonica, CT) with five alternating and on and off pulses in 5 and 10 s intervals, respectively. Lysates were […] at 2,000×g for 10 min to remove the nuclear fraction and cellular debris. The supernatant was collected and brought to 1 mL with homogenization buffer for ultracentrifugation at 200,000×g for 45 min at 4° C. The pallet was resuspended and repelleted by ultracentrifugation in 0.2 M Na2CO3 (pH 11) followed by water to fragment the endoplasmic reticulum and remove the cytoplasmic fraction, respectively. The resulting membrane faction was isolated and stored at −20° C. until further processing.
Membrane pellets were resuspended with 100 μL of 100 mM ammonium bicarbonate in 5 mM dithiothreitol and heated for 10 s at 100° C. to thermally denature the proteins. […] After addition of 400 μL of chilled ethanol, samples were placed in −80° C. for 1.5 h and centrifuged for 20 min at 21,130×g to precipitate residual deglycosylated proteins. The supernatant containing the released N-glycans was collected and dried. N-Glycans were purified by solid phase extraction containing a porous graphitized carbon (PGC) matrix. Eluted fractions were dried in vacuo.

Caco-2 cells [2] = assay: Permeability assay, FITC-dextran passage through Caco-2 monolayer; assay type: cell-based, Human; conditions: 100 μg/mL treatment, after 2 h, untreated to treated, n=4
Description: Caco-2 cells were seeded on porous polycarbonate filter membranes (3401; Corning, NY) until cells formed a single monolayer and were fully differentiated. Kifunensine (Carbosynth, CA) was added post-differeniation for 72 h. Four replicates were prepared for both control and kifunensine-treated cases. Permeability experiments were performed in Hank's Balanced Salt Solution, prepared with 25 mM HEPES, 0.35 g/L sodium bicarbonate, and adjusted to pH 7.4 with sodium hydroxide. The prepared membranes were washed and inserted into a new micro-well plate. FITC-dextran (4 kDa) (Sigma-Aldrich, MO) was introduced to the upper (apical) chamber at 10 mg/mL. The plate was placed in a 37° C. incubator devoid of CO2 for 2 h on an orbital shaker at 100 rpm. The amount of FITC-dextran that transferred through the cells was measured in the lower (basolateral) chamber by fluorescence at 492/520 nm (excitation/emission) using a Perkin Elmer Victor3 Multilabel Plate Reader (Parkin Elmer, MA). The apparent permeability coefficient was determined according to the following equation: [formula] where dQ/dt is the rate of permeation across cells, A is the surface area of the membrane, and C0 is the initial donor concentration. Transepithelial electrical resistance (TEER) values were measured using a Millicell ERS Voltohmmeter (EMD Millipore, MA) at room temperature. Enzyme Activity Assay

[3] = tested on: alkaline phosphatase (IAP); assay: Intestinal alkaline phosphatase activity in membrane fractions of treated Caco-2 cells; assay type: cell-based, Human; conditions: enriched membrane fractions of kifunensine-treated (high mannose rich) cells
Description: Intestinal alkaline phosphatase (IAP) activity was measured in membrane-enriched factions using a colorimetric assay per manufacturer's instructions (Abcam, MA). Cells were incubated with 50 μM p-nitrophenyl phosphate (p-NPP) for 60 min. Dephosphorylated was monitored by the production of p-nitrophenyl, which turns the solution to a visible yellow color. Absorbance readings were taken at 405 nm with a microplate photometer. Enzyme activities were determined with a standard curve generated using IAP enzyme. Activity was measured in U/mL, where a Unit is defined as the amount of enzyme to hydrolyze 1 μmol of p-NPP per minute at 37° C.

[4] = tested on: dipeptidyl peptidase IV (DPP IV); assay: Dipeptidyl peptidase IV activity in membrane fractions of treated Caco-2 cells; assay type: cell-based, Human; conditions: membrane fractions of kifunensine-treated cells
Description: Dipeptidyl peptidase IV (DPP IV) activity was measured in membrane-enriched fractions using a colorimetric assay per manufacturer's instructions (Enzo Life sciences, NY). Membrane extracts from control and kifunensine-treated cells were incubated with a chromogenic substrate (H-Gly-Pro-pNa) at 25° C. for 30 min. Cleavage of p-nitroaniline (pNA) was monitored by absorbance measurements at […] with a microplate photometer. Enzyme activities were compared to a standard curve generated using a pNA standard. A reaction containing a DPP IV inhibitor (P32/98) was included as a control for enzymatic specificity.

[5] = tested on: enterohaemorrhagic Escherichia coli (EHEC); assay: Bacterial association assay on Caco-2 host cells, EHEC; assay type: cell-based, Escherichia coli O157:H7
Description: (§1) Enterohaemorrhagic Escherichia coli O157H;7 (EHEC) and methicillin-resistant Staphyloccuus aureus (MRSA) were grown at 37° C. with continuous shaking for 14-16 h.
(§2) Caco-2 cells were seeded into 24-well plates at 5×10^5 cells per well. Wells were designated as control (Row 1) or treated with kifunensine (Row 2). For adhesion, the left half of the plate was infected with logarithmically growing enterohaemorrhagic Escherichia coli O157:H7 (EHEC), and the right half of the plate was infected with methicillin-resistant Staphylocaccus aureus (MRSA). Triplicate setups were prepared for each condition. After 2 h, the wells were washed 3× with PBS and the adherent cell counts were determined by serial dilutions and spotting of the lysate generated upon treatment of the wells with, PBS/0.5% Triton for 5 min. CFU are expressed per mL as a comparison between the different treatments. For measuring uptake, the duplicate plate was similarly infected with EHEC and MRSA. Two hours post-infection, the unbound bacteria were washed with PBS (3×) and the Caco-2-cells were treated with media containing 100 μg/mL gentamicin to lyse cell surface associated bacteria. Following a 2 h-treatment, the internalized bacterial cell counts were derived upon lysing the Caco-2 cells with PBS/0.5% Triton followed by serial dilution and CFU counts.

[6] = tested on: methicillin-resistant Staphylococcus aureus (MRSA); assay: Bacterial association assay on Caco-2 host cells, MRSA; assay type: cell-based
Description: as §1, §2

[7] = hyper-mannosylated (kifunensine-treated) Caco-2, within 2 h

Compound: O=C1N[C@@H]2[C@@H](O)[C@@H](O)[C@H](O)[C@@H](CO)N2C1=O [kifunensine]
- cell viability (Caco-2 cells [1]): without affecting viability
- conversion of surface glycans into high mannose glycans (Caco-2 cells [1]): nearly complete conversion
- maximum increase in passage of FITC-D4 from upper to lower chamber (Caco-2 cells [2]): 64%
- decrease in IAP activity vs unaltered Caco-2 cells [3]: ~32%
- DPP IV activity change [4]: nearly unaffected
- EHEC uptake in comparison to control cells ([5]; Caco-2 rich in high mannose glycans (kifunensine-treated), p=0.0005): significantly reduced
- EHEC binding to the monolayer [5, 7]: did not significantly affect
- increase in ability of MRSA to adhere to the monolayer [6, 7]: > 5000%
- more MRSA bacteria able to invade transformed host cells than untreated cells ([6]; kifunensine-transformed Caco-2): approximately 30%
